Test results from patent US9730931B2, “Pyrimidine FGFR4 inhibitors” (priority 2013, dated 2017).
Like-named read-outs stand apart in the source and are kept apart here.

Test system: Hep3B xenograft
Assay type: in vivo

SMILES | Tolerability (health of animals) (30 mg/kg orally twice daily) | Comparative in vivo efficacy (60 mg/kg orally twice daily) | Tolerability (health of animals) (60 mg/kg orally twice daily) | Comparative in vivo efficacy (25, 37.5 or 50 mg/kg i.p. twice daily)
CCN1CCN(c2ccc(Nc3cc(N(C)C(=O)Nc4c(Cl)c(OC)cc(OC)c4Cl)ncn3)cc2)CC1 [BGJ398] | did not exhibit poor health | efficacy comparable to compound 108 | terminated on Day 11 due to poor health of animals | 
C=CC(=O)Nc1cc(N2CCN(CC)CC2)ccc1Nc1cc(N(C)C(=O)Nc2c(Cl)c(OC)cc(OC)c2Cl)ncn1 [Example 108, N-(2-(6-(3-(2,6-Dichloro-3,5-dimethoxyphenyl)-1-methylureido)-pyrimidin-4-ylamino)-5-(4-ethylpiperazin-1-yl)-phenyl)-acrylamide] |  |  |  | more efficacious than BGJ398 at tolerable dosage levels
